12 compounds from US10968203B2, “Pyrimidinyl-pyridyloxy-naphthyl compounds and methods of treating IRE1-related diseases and disorders” (Genentech, Inc., priority 2017, dated 2021) can be followed below.

Where a name gives a salt, the structure may show the parent alone. Read-outs that look alike come from different tables or passages of the source.

The assay deals with XBP1s-luc 293 LUC. As to the kind of experiment: cellular PD assay, XBP1s-LUC reporter (Example 903). The class given is cell-based. To be noted: read-out: XBP1s-luc 293 LUC (IC50). The protocol:
Inhibition of IRE1α RNase activity was determined in an enzyme assay that measured cleavage of the XBP1 stem loop by autophosphorylated IRE1α. This assay format was chosen to ensure that inhibitors of either the IRE1α kinase or the RNase domains would be identified. Binding to the ATP pocket and inhibition of IRE1α kinase activity are not necessarily required to inhibit the RNase activity. Compounds were also profiled in cellular assays by direct measurement of XBP s (B-DNA assay) or by quantification of the luciferase signal in HT1080 XBP1-Luc, which carries a luciferase fusion that is only in frame and expressed from the spliced XBP1 transcript.
Biological activity of Formula I or I′ compounds was measured by an IRE1 biochemical binding assay (Example 901), a biochemical RNase assay (Example 902), a cellular PD assay, XBP1s-LUC reporter (Example 903), and an IRE1α-based inhibition of multiple myeloma (MM) cell proliferation assay.
All of the exemplary Formula I or I′ compounds in Tables 1 and 2 were made and characterized by LCMS [M+H]^+ (liquid chromatography mass spectroscopy) with detection of parent ion. All of the exemplary Formula I compounds in Tables 1 and 2 were prepared according to the procedures of the Schemes, General Procedures, and Examples. All of the exemplary Formula I or I′ compounds in Tables 1 and 2 were tested for binding to IRE1 (inositol requiring enzyme 1 alpha) and biological activity according to the assays and protocols of Example 901-903. Exemplary Formula I or I′ compounds in Tables 1 and 2 have the following structures, corresponding IUPAC names (ChemBioDraw, Version 12.0.2, CambridgeSoft Corp., Cambridge Mass.), and biological activity. Where more than one name is associated with a Formula I or I′ compound or intermediate in Tables 1 and 2 and the Experimental Procedures, the chemical structure shall define the compound. Assignment of configuration at chiral centers in separated stereoisomers may be tentative, and depicted in Tables 1 and 2 structures for illustrative purposes, before stereochemistry is definitively established, such as from x-ray crystallographic data. In some cases, stereoisomers are separated and tested for biological activity before the stereochemistry of the separated stereoisomers is determined; and stereochemistry in some instances was inferred based on structure-activity relationship (SAR) knowledge from previous compounds. In some cases, the compounds are tested as racemic or diastereomeric mixtures. Where more than one potency value is entered on a row, separated stereoisomers represented by the structure and name on that row were tested. Exemplary compounds of Formula I or I′ in Table 3 can be prepared using methods known in the art or according to procedures similar to those described in the Schemes, General Procedures, and Examples 101-500. Biological activities of compounds in Table 3 can be tested in biological assays, for example, those in Examples 901, 902 and 903 described herein.

As for `Cc1ccc2c(NC(=O)Cc3ccccc3F)cccc2c1Oc1ncccc1-c1ccnc(N[C@H]2CCCNC2)n1` [Example 177, (S)-2-(2-Fluorophenyl)-N-(6-methyl-5-((3-(2-(piperidin-3-ylamino)pyrimidin-4-yl)pyridin-2-yl)oxy)naphthalen-1-yl)acetamide], the half-inhibitory concentration (IC50) (usually the midpoint of a concentration-inhibition curve) (Table 1) was determined as 108 nM.
`CCO[C@@H](CNc1cccc2c(Oc3ncccc3-c3ccnc(N[C@H]4CCCNC4)n3)c(C)ccc12)C(F)(F)F` [Example 445, 4-(2-((5-(((S)-2-Ethoxy-3,3,3-trifluoropropyl)amino)-2-methylnaphthalen-1-yl)oxy)pyridin-3-yl)-N—((S)-piperidin-3-yl)pyrimidin-2-amine hydrochloride]: the IC50 (Table 2) stood at 78 nM.
Turning to `CC[C@H]1CCN(c2cccc3c(Oc4ncccc4-c4ccnc(N[C@@H]5CNC[C@H](C)C5)n4)c(C)ccc23)C1=O` (single isomer, unassigned) [Example 332], under “Table 1”, the half-maximal inhibitory concentration (IC50) amounted to 194 nM.
Same read-out and setting: the same measure for `Cc1ccc2c(NS(=O)(=O)N(C)C)c(F)ccc2c1Oc1ncccc1-c1ccnc(N[C@H]2CCCNC2)n1` [Example 324, 4-[2-[[5-(Dimethylsulfamoylamino)-6-fluoro-2-methyl-1-naphthyl]oxy]-3-pyridyl]-2-[[(3S)-3-piperidyl]amino]pyrimidine]: 45.5 nM; for `Cc1nc(CNc2cccc3c(Oc4ncccc4-c4ccnc(N[C@H]5CCCNC5)n4)c(C)ccc23)no1` [Example 320, 4-[2-[[2-Methyl-5-[(5-methyl-1,2,4-oxadiazol-3-yl)methylamino]-1-naphthyl]oxy]-3-pyridyl]-N-[(3S)-3-piperidyl]pyrimidin-2-amine]: 740 nM; for `Cc1cc(NS(=O)(=O)Cc2ccccc2)c2ccccc2c1Oc1ncccc1-c1ccnc(N[C@H]2CC[C@H](N)CC2)n1` [Example 110, N-(4-((3-(2-(((1r,4r)-4-aminocyclohexyl)amino)pyrimidin-4-yl)pyridin-2-yl)oxy)-3-methylnaphthalen-1-yl)-1-phenylmethanesulfonamide hydrochloride]: 119 nM.
On the same count and under the same terms, the result for `Cc1ccc2c(NS(=O)(=O)CCC(F)(F)F)c(F)ccc2c1Oc1ncccc1-c1ccnc(N[C@@H]2CNC[C@H](C)C2)n1` [Example 311, 3,3,3-Trifluoro-N-(2-fluoro-6-methyl-5-((3-(2-(((3S,5R)-5-methylpiperidin-3-yl)amino)pyrimidin-4-yl)pyridin-2-yl)oxy)naphthalen-1-yl)propane-1-sulfonamide] reads 6.16 nM; that for `Cc1ccc2c(NC(=O)CC3CC3)cccc2c1Oc1ncccc1-c1ccnc(N[C@H]2CCCNC2)n1` [Example 191, (S)-2-Cyclopropyl-N-(6-methyl-5-((3-(2-(piperidin-3-ylamino)pyrimidin-4-yl)pyridin-2-yl)oxy)naphthalen-1-yl)acetamide], 234 nM.
Same read-out and setting: the same measure for `Cc1ccc2c(NC(=O)C3(C)CC3)c(F)ccc2c1Oc1ncccc1-c1ccnc(N[C@H]2CCCNC2)n1` [Example 365, (S)—N-(2-Fluoro-6-methyl-5-((3-(2-(piperidin-3-ylamino)pyrimidin-4-yl)pyridin-2-yl)oxy)naphthalen-1-yl)-1-methylcyclopropanecarboxamide]: 438 nM.
`Cc1ccc2c(N3CCC(C)(C)C3=O)cccc2c1Oc1ncccc1-c1ccnc(N[C@H]2CCCNC2)n1` [Example 238, (S)-3,3-Dimethyl-1-(6-methyl-5-((3-(2-(piperidin-3-ylamino)pyrimidin-4-yl)pyridin-2-yl)oxy)naphthalen-1-yl)pyrrolidin-2-one]: the IC50 (Table 1) came out at 275 nM.
Regarding `Cc1ccc2c(NS(=O)(=O)Cc3ccccc3)c(F)ccc2c1Oc1ncccc1-c1ccnc(N[C@@H]2CNC[C@@H](F)C2)n1` (single isomer, unassigned) [Example 418, hydrochloride], the IC50 (Table 2) turned out to be 2 nM.
As to `Cc1ccc2c(NS(=O)(=O)N(C)C)c(F)ccc2c1Oc1ncccc1-c1ccnc(N[C@@H]2CNC[C@H](C)C2)n1` [Example 325, 4-[2-[[5-(Dimethylsulfamoylamino)-6-fluoro-2-methyl-1-naphthyl]oxy]-3-pyridyl]-2-[[(3S,5R)-5-methyl-3-piperidyl]amino]pyrimidine], the IC50 (Table 1) is 35 nM.
